Measured values from the supplement of paper PMC10307832.

Key:
Assay in all cases: relative viability (nuclei count vs DMSO), 5 days (fraction); higher = more cells survive
[1] = compound: CN1C=C(C2=CC=CC=C21)/C=C\3/C4=C(C=CC=N4)NC3=O + CC(=O)c1c(C)c2cnc(Nc3ccc(N4CCNCC4)cn3)nc2n(C2CCCC2)c1=O [Palbociclib] (partner 0.5 µM)
Method in brief: (§1)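 Lung cancer cell lines in 1536-well plates got either a single drug or a fixed anchor-drug dose together with five library-drug doses (not always all listed) in √10 steps, by pin tool, on the day after seeding. Nuclei were counted after 5 days, and relative viability is the treated-to-vehicle ratio of nuclei counts. Values are medians of duplicate plates.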

[2] = compound: CN1C=C(C2=CC=CC=C21)/C=C\3/C4=C(C=CC=N4)NC3=O + CS(=O)(=O)CCNCc1ccc(-c2ccc3ncnc(Nc4ccc(OCc5cccc(F)c5)c(Cl)c4)c3c2)o1 [Lapatinib] (partner 2 µM)
Method in brief: as §1

[3] = compound: CN1C=C(C2=CC=CC=C21)/C=C\3/C4=C(C=CC=N4)NC3=O + C[C@]1(O)C[C@@H](c2nc(-c3ccc4ccc(-c5ccccc5)nc4c3)c3c(N)nccn32)C1 [Linsitinib] (partner 1 µM)
Method in brief: as §1

[4] = compound: CN1C=C(C2=CC=CC=C21)/C=C\3/C4=C(C=CC=N4)NC3=O + O=C(c1cc(Cc2n[nH]c(=O)c3ccccc23)ccc1F)N1CCN(C(=O)C2CC2)CC1 [Olaparib] (partner 8 µM)
Method in brief: as §1

Cell Line | relative viability ([1]; first compound 0.02 µM) | relative viability ([1]; first compound 0.06325 µM) | relative viability ([1]; first compound 0.2 µM) | relative viability ([1]; first compound 0.6325 µM) | relative viability ([1]; first compound 2 µM) | relative viability ([2]; first compound 0.02 µM) | relative viability ([2]; first compound 0.06325 µM) | relative viability ([2]; first compound 0.2 µM) | relative viability ([2]; first compound 0.6325 µM) | relative viability ([2]; first compound 2 µM) | relative viability ([3]; first compound 0.02 µM) | relative viability ([3]; first compound 0.06325 µM) | relative viability ([3]; first compound 0.2 µM) | relative viability ([3]; first compound 0.6325 µM) | relative viability ([3]; first compound 2 µM) | relative viability ([4]; first compound 0.02 µM) | relative viability ([4]; first compound 0.06325 µM) | relative viability ([4]; first compound 0.2 µM) | relative viability ([4]; first compound 0.6325 µM) | relative viability ([4]; first compound 2 µM)
NCI-H1666 | 0.604 | 0.62 | 0.634 | 0.574 | 0.632 | 0.781 | 0.606 | 0.512 | 0.599 | 0.532 | 0.85 | 0.712 | 0.79 | 0.748 | 0.665 | 0.749 | 0.735 | 0.706 | 0.708 | 0.714
SK-MES-1 | 0.243 | 0.325 | 0.316 | 0.321 | 0.264 | 0.451 | 0.427 | 0.447 | 0.454 | 0.428 | 0.937 | 1.18 | 1.09 | 1.02 | 1.06 | 0.638 | 0.516 | 0.592 | 0.544 | 0.505
NCI-H2023 | 0.412 | 0.369 | – | 0.45 | 0.372 | 0.709 | 0.739 | 0.222 | 0.652 | 0.684 | 0.615 | 0.657 | 0.628 | 0.665 | 0.692 | 0.451 | 0.53 | 0.566 | 0.432 | 0.517
COR-L 105 | 0.428 | 0.418 | 0.419 | 0.373 | 0.497 | 0.33 | 0.334 | 0.362 | 0.344 | 0.397 | 0.969 | 0.948 | 0.9 | 0.809 | 0.916 | 0.522 | 0.459 | 0.478 | 0.585 | 0.967
NCI-H838 | 0.208 | 0.174 | 0.214 | 0.199 | 0.18 | 0.774 | 0.9 | 0.813 | 0.785 | 0.896 | 0.662 | 0.866 | 0.944 | 0.904 | 0.986 | 0.695 | 0.604 | 0.653 | 0.765 | 0.67
SW 1573 | 0.319 | 0.391 | 0.426 | 0.424 | 0.485 | 1.17 | 0.905 | 0.921 | 1.07 | 1.18 | 0.894 | 0.793 | 0.914 | 0.787 | 0.965 | 0.5 | 0.425 | 0.434 | 0.453 | 0.529
